From patent US20140371074A1, “METHOD TO INCREASE PLANT YIELD” (priority 2012, published 2014)

Tests used:
[1] = tested on: soybean cultivars L2711R2X, L3385R2; experiment: Field 2012: 2,4-D Low Vol 4 + crop oil drizzled onto soil at R1 stage, Laurel, Iowa (Table 2b); type: in vivo
Description: Plants were treated by drizzling via low pressure spraying the 2,4-D solution onto the soil along each side of the rows when plants are at the R1 stage of growth. The date of planting was May 15, 2012 and the date of harvest was Oct. 2, 2012 at plots in Alexander, Iowa (Table 2a) and Laurel, Iowa (Table 2b). Plants were grown from Roundup Ready seed and were sprayed with glyphosate for weed control. Plants were treated with between 1X and 5.5X of 2,4-D solution mixed with crop oil at 15.3 ounces of 2,4-D Low Vol 4 plus 0.32 ounces crop oil per gallon, where 1X is equivalent to approximately 0.45 pounds acid equivalent of 2,4-D. Two repetitions were performed at different plots. […] The moisture percentages were used in correcting each yield to a 13% moisture basis.

[2] = tested on: Soybean variety Latham EX32124 CystX; experiment: Greenhouse: 2,4-D LV4 drizzled onto soil of potted plants, pod and node counts; type: in vivo; conditions: for Average pods per normal node / Megacluster nodes / Normal nodes / Total nodes with pods / Pods on megacluster nodes / Pods on normal nodes / Average pods per megacluster node: 2 plants/pot; for Pods on megacluster nodes / Pods on normal nodes / Total pods per pot (2 plants): immature pods
Description: Soybean variety ‘Latham EX32124 CystX’ was planted in 8.5 inch diameter pots and grown under lights in a greenhouse. Four seeds each were planted and later thinned to 2 plants per plot for each of 5 treatment rates of 0.47, 0.94, 1.88, 3.76, and 7.52 pounds a.e. of 2,4-D per acre. […] When the soybean plants were at the stage of growth in which pods are 3/16 inch length at one of the two uppermost nodes, the number of beginning pods was observed.
At this stage, household fertilizer was added to the plants along with water, and the number of nodes and pods was observed approximately ten days later, as shown in Table 3. Pod counts were for 2 plants per pot.

[3] = 1.0X Rate, L2711R2X, 1X~0.45 lb a.e.
[4] = 1.0X Rate, L3385R2, 1X~0.45 lb a.e.
[5] = 1.5X Rate, L2711R2X, 1X~0.45 lb a.e.
[6] = 1.5X Rate, L3385R2, 1X~0.45 lb a.e.
[7] = 2.0X Rate, L2711R2X, 1X~0.45 lb a.e.
[8] = 2.0X Rate, L3385R2, 1X~0.45 lb a.e.
[9] = 2.5X Rate, L2711R2X, 1X~0.45 lb a.e.
[10] = 2.5X Rate, L3385R2, 1X~0.45 lb a.e.
[11] = 3.0X Rate, L2711R2X, 1X~0.45 lb a.e.
[12] = 3.0X Rate, L3385R2, 1X~0.45 lb a.e.
[13] = 3.5X Rate, L2711R2X, 1X~0.45 lb a.e.
[14] = 3.5X Rate, L3385R2, 1X~0.45 lb a.e.
[15] = 4.0X Rate, L2711R2X, 1X~0.45 lb a.e.
[16] = 4.0X Rate, L3385R2, 1X~0.45 lb a.e.
[17] = 4.5X Rate, L2711R2X, 1X~0.45 lb a.e.
[18] = 4.5X Rate, L3385R2, 1X~0.45 lb a.e.
[19] = 5.0X Rate, L2711R2X, 1X~0.45 lb a.e.
[20] = 5.0X Rate, L3385R2, 1X~0.45 lb a.e.
[21] = 5.5X Rate, L2711R2X, 1X~0.45 lb a.e.
[22] = 5.5X Rate, L3385R2, 1X~0.45 lb a.e.
[23] = Average over 1.0X-3.0X Rates, L2711R2X
[24] = Average over 1.0X-3.0X Rates, L3385R2
[25] = Average over 1.0X-5.5X Rates, L2711R2X
[26] = Average over 1.0X-5.5X Rates, L3385R2
[27] = Overall location average, all rates, both cultivars

SMILES: O=C(O)COc1ccc(Cl)cc1Cl [2,4-D, 2,4-Dichlorophenoxyacetic acid]
- Average Yield [1, 3]: 64.93 Bu/A
- Repetition 1 Weight [1, 3]: 5.6 Lbs
- Repetition 1 Yield [1, 3]: 62.69 Bu/A
- Repetition 2 Weight [1, 3]: 6.0 Lbs
- Repetition 2 Yield [1, 3]: 67.16 Bu/A
- Average Yield [1, 4]: 72.50 Bu/A
- Repetition 1 Weight [1, 4]: 6.7 Lbs
- Repetition 1 Yield [1, 4]: 73.40 Bu/A
- Repetition 2 Weight [1, 4]: 6.5 Lbs
- Repetition 2 Yield [1, 4]: 71.60 Bu/A
- Average Yield [1, 5]: 67.20 Bu/A
- Repetition 1 Weight [1, 5]: 6.6 Lbs
- Repetition 1 Yield [1, 5]: 73.88 Bu/A
- Repetition 2 Weight [1, 5]: 5.4 Lbs
- Repetition 2 Yield [1, 5]: 60.51 Bu/A
- Average Yield [1, 6]: 75.70 Bu/A
- Repetition 1 Weight [1, 6]: 6.8 Lbs
- Repetition 1 Yield [1, 6]: 74.34 Bu/A
- Repetition 2 Weight [1, 6]: 6.9 Lbs
- Repetition 2 Yield [1, 6]: 77.07 Bu/A
- Average Yield [1, 7]: 63.41 Bu/A
- Repetition 1 Weight [1, 7]: 5.7 Lbs
- Repetition 1 Yield [1, 7]: 64.01 Bu/A
- Repetition 2 Weight [1, 7]: 5.6 Lbs
- Repetition 2 Yield [1, 7]: 62.82 Bu/A
- Average Yield [1, 8]: 70.93 Bu/A
- Repetition 1 Weight [1, 8]: 6.3 Lbs
- Repetition 1 Yield [1, 8]: 70.22 Bu/A
- Repetition 2 Weight [1, 8]: 6.4 Lbs
- Repetition 2 Yield [1, 8]: 71.64 Bu/A
- Average Yield [1, 9]: 63.35 Bu/A
- Repetition 1 Weight [1, 9]: 5.7 Lbs
- Repetition 1 Yield [1, 9]: 63.87 Bu/A
- Repetition 2 Weight [1, 9]: 5.6 Lbs
- Repetition 2 Yield [1, 9]: 62.82 Bu/A
- Average Yield [1, 10]: 71.91 Bu/A
- Repetition 1 Weight [1, 10]: 6.3 Lbs
- Repetition 1 Yield [1, 10]: 70.60 Bu/A
- Repetition 2 Weight [1, 10]: 6.5 Lbs
- Repetition 2 Yield [1, 10]: 73.23 Bu/A
- Average Yield [1, 11]: 63.84 Bu/A
- Repetition 1 Weight [1, 11]: 5.5 Lbs
- Repetition 1 Yield [1, 11]: 61.50 Bu/A
- Repetition 2 Weight [1, 11]: 5.9 Lbs
- Repetition 2 Yield [1, 11]: 66.19 Bu/A
- Average Yield [1, 12]: 71.91 Bu/A
- Repetition 1 Weight [1, 12]: 6.6 Lbs
- Repetition 1 Yield [1, 12]: 74.12 Bu/A
- Repetition 2 Weight [1, 12]: 6.2 Lbs
- Repetition 2 Yield [1, 12]: 69.70 Bu/A
- Repetition 1 Weight [1, 13]: 5.7 Lbs
- Repetition 1 Yield [1, 13]: 63.74 Bu/A
- Average Yield ([1]; 3.5X Rate, L2711R2X, 1X~0.45 lb a.e., repetition 1 only): 63.74 Bu/A
- Repetition 1 Weight [1, 14]: 6.3 Lbs
- Repetition 1 Yield [1, 14]: 68.94 Bu/A
- Average Yield ([1]; 3.5X Rate, L3385R2, 1X~0.45 lb a.e., repetition 1 only): 68.94 Bu/A
- Repetition 1 Weight [1, 15]: 6.1 Lbs
- Repetition 1 Yield [1, 15]: 68.28 Bu/A
- Average Yield ([1]; 4.0X Rate, L2711R2X, 1X~0.45 lb a.e., repetition 1 only): 68.28 Bu/A
- Repetition 1 Weight [1, 16]: 6.7 Lbs
- Repetition 1 Yield [1, 16]: 74.76 Bu/A
- Average Yield ([1]; 4.0X Rate, L3385R2, 1X~0.45 lb a.e., repetition 1 only): 74.76 Bu/A
- Repetition 1 Weight [1, 17]: 6.3 Lbs
- Repetition 1 Yield [1, 17]: 70.60 Bu/A
- Average Yield ([1]; 4.5X Rate, L2711R2X, 1X~0.45 lb a.e., repetition 1 only): 70.60 Bu/A
- Repetition 1 Weight [1, 18]: 6.6 Lbs
- Repetition 1 Yield [1, 18]: 72.78 Bu/A
- Average Yield ([1]; 4.5X Rate, L3385R2, 1X~0.45 lb a.e., repetition 1 only): 72.78 Bu/A
- Repetition 1 Weight [1, 19]: 5.9 Lbs
- Repetition 1 Yield [1, 19]: 66.11 Bu/A
- Average Yield ([1]; 5.0X Rate, L2711R2X, 1X~0.45 lb a.e., repetition 1 only): 66.11 Bu/A
- Repetition 1 Weight [1, 20]: 6.6 Lbs
- Repetition 1 Yield [1, 20]: 74.12 Bu/A
- Average Yield ([1]; 5.0X Rate, L3385R2, 1X~0.45 lb a.e., repetition 1 only): 74.12 Bu/A
- Repetition 1 Weight [1, 21]: 5.4 Lbs
- Repetition 1 Yield [1, 21]: 60.45 Bu/A
- Average Yield ([1]; 5.5X Rate, L2711R2X, 1X~0.45 lb a.e., repetition 1 only): 60.45 Bu/A
- Repetition 1 Weight [1, 22]: 6.3 Lbs
- Repetition 1 Yield [1, 22]: 70.37 Bu/A
- Average Yield ([1]; 5.5X Rate, L3385R2, 1X~0.45 lb a.e., repetition 1 only): 70.37 Bu/A
- Repetition 2 Weight [1, 23]: 5.7 Lbs
- Repetition 2 Yield [1, 23]: 63.90 Bu/A
- Repetition 2 Weight [1, 24]: 6.5 Lbs
- Repetition 2 Yield [1, 24]: 72.65 Bu/A
- Average Yield [1, 25]: 65.19 Bu/A
- Repetition 1 Weight [1, 25]: 5.9 Lbs
- Repetition 1 Yield [1, 25]: 65.51 Bu/A
- Average Yield [1, 26]: 72.39 Bu/A
- Repetition 1 Weight [1, 26]: 6.5 Lbs
- Repetition 1 Yield [1, 26]: 72.36 Bu/A
- Average Yield [1, 27]: 68.79 Bu/A
- Repetition 1 Weight [1, 27]: 6.2 Lbs
- Repetition 1 Yield [1, 27]: 68.94 Bu/A
- Repetition 2 Weight [1, 27]: 6.1 Lbs
- Repetition 2 Yield [1, 27]: 68.27 Bu/A
- Beginning pods ([2]; 0.47 lbs a.e. per acre): Normal
- Average pods per normal node ([2]; 0.47 lbs a.e.): 3.9
- Megacluster nodes ([2]; 0.47 lbs a.e.): 0
- Normal nodes ([2]; 0.47 lbs a.e.): 7
- Total nodes with pods ([2]; 0.47 lbs a.e.): 7
- Pods on megacluster nodes ([2]; 0.47 lbs a.e.): 0
- Pods on normal nodes ([2]; 0.47 lbs a.e.): 27
- Total pods per pot (2 plants) ([2]; 0.47 lbs a.e.): 27
- Beginning pods ([2]; 0.94 lbs a.e. per acre): huge clusters of pods (megaclusters)
- Average pods per megacluster node ([2]; 0.94 lbs a.e.): 12.5
- Average pods per normal node ([2]; 0.94 lbs a.e.): 3.6
- Megacluster nodes ([2]; 0.94 lbs a.e.): 6
- Normal nodes ([2]; 0.94 lbs a.e.): 5
- Total nodes with pods ([2]; 0.94 lbs a.e.): 11
- Pods on megacluster nodes ([2]; 0.94 lbs a.e.): 75
- Pods on normal nodes ([2]; 0.94 lbs a.e.): 18
- Total pods per pot (2 plants) ([2]; 0.94 lbs a.e.): 93
- number of pods versus untreated plants ([2]; 0.94 pounds a.e. of 2,4-D): over double the number of pods
- total number of pods per plant compared to the control ([2]; 1.88, 3.76, and 7.52 pounds a.e. of 2,4-D per acre): increased total number of pods per plant
- Beginning pods ([2]; 1.88 lbs a.e. per acre): huge clusters of pods (megaclusters)
- Average pods per megacluster node ([2]; 1.88 lbs a.e.): 6.0
- Average pods per normal node ([2]; 1.88 lbs a.e.): 3.4
- Megacluster nodes ([2]; 1.88 lbs a.e.): 5
- Normal nodes ([2]; 1.88 lbs a.e.): 5
- Total nodes with pods ([2]; 1.88 lbs a.e.): 10
- Pods on megacluster nodes ([2]; 1.88 lbs a.e.): 30
- Pods on normal nodes ([2]; 1.88 lbs a.e.): 17
- Total pods per pot (2 plants) ([2]; 1.88 lbs a.e.): 49
- Beginning pods ([2]; 3.76 lbs a.e. per acre): Normal
- Average pods per megacluster node ([2]; 3.76 lbs a.e.): 9.0
- Average pods per normal node ([2]; 3.76 lbs a.e.): 4.8
- Megacluster nodes ([2]; 3.76 lbs a.e.): 3
- Normal nodes ([2]; 3.76 lbs a.e.): 5
- Total nodes with pods ([2]; 3.76 lbs a.e.): 8
- Pods on megacluster nodes ([2]; 3.76 lbs a.e.): 27
- Pods on normal nodes ([2]; 3.76 lbs a.e.): 24
- Total pods per pot (2 plants) ([2]; 3.76 lbs a.e.): 51
- Beginning pods ([2]; 7.52 lbs a.e. per acre): Normal
- Average pods per megacluster node ([2]; 7.52 lbs a.e.): 9.0
- Average pods per normal node ([2]; 7.52 lbs a.e.): 3.6
- Megacluster nodes ([2]; 7.52 lbs a.e.): 2
- Normal nodes ([2]; 7.52 lbs a.e.): 7
- Total nodes with pods ([2]; 7.52 lbs a.e.): 9
- Pods on megacluster nodes ([2]; 7.52 lbs a.e.): 18
- Pods on normal nodes ([2]; 7.52 lbs a.e.): 25
- Total pods per pot (2 plants) ([2]; 7.52 lbs a.e.): 43
- leaf damage ([2]; 7.52 pounds a.e. rate): some yellowing of leaves
- pod set ([2]; between 0.47 and 7.52 pounds a.e. of 2,4-D per acre): excessive numbers of pods at every node
- mature slower and stay greener, longer than untreated plants ([2]; treated plants, 0.47-7.52 pounds a.e. per acre): approximately 2 weeks
